Results taken from US20240141294A1, “CGMP COMPLIANT PRODUCTION AND EXPANSION OF PLASMACYTOID DENDRITIC CELLS FROM HEMATOPOIETIC STEM AND PROGENITOR CELLS” (AARHUS UNIVERSITET, priority 2021, published 2024).

Columns and labels:
Assay type in all cases: cell-based, human
CD34+ HSPCs = experiment: HSPC expansion and HSPC-pDC differentiation culture (cell numbers, viability, HSPC-pDC yield)
Protocol: Depending on optimization regiments, freshly or cryo-preserved HSPCs from various sources were differentiated to HSPC-pDCs using different types of medium. For STD and LD/RPMI conditions, HSPCs were cultured in RPMI 1640 (Lonza) supplemented with 10% heat-inactivated fetal calf serum (FCS) (HyClone®), 600 μg/mL L-Glutamine (Sigma), 200 U/mL penicillin and 100 μg/mL streptomycin (Gibco®, Life Technologies). For STD conditions, HSPCs were cultured at a fixed volume during pDC differentiation, versus a fixed density of 0.5-5×10^6 cells/mL for the LD condition. For serum-free (SFEM II) or CGMP serum-free medium (DC medium) conditions, HSPCs were cultured in SFEM II or DC medium at low density (0.5-5×10^6 cells/mL). […] All cytokines are from Peprotech. In addition, the small molecule inhibitor StemRegenin 1 (SR1, […] Technologies) was added at a concentration of 1 μM. For serum-free medium conditions, a concentration of 20 μg/mL streptomycin and 20 U/mL penicillin (Gibco, Life Technologies) was added. Moreover, for the CGMP DC medium condition, 50 μg/mL of ascorbic acid was added. Cells were cultured at 37° C., 95% humidity, and 5% CO2 for up to 21 days depending on optimizations. For the fixed density conditions, medium was replenished every 2-4 day depending on the growth of the HSPCs. Total cell numbers during expansion and differentiation of HSPCs was determined using a TC20 Automated Cell Counter (Bio-Rad). At the end of culture, HSPC-pDCs were enriched using a negative selection kit, according to manufacturer's instructions (EasySep Human Plasmacytoid Dendritic Cell Enrichment kit, […] Technologies).
De-identified umbilical cord blood (UCB) samples were obtained following scheduled caesarean section deliveries of healthy infants at Department of Gynecology and Obstetrics, Skejby University Hospital. Consent was obtained from the mothers. CD34^+ cord blood HSPCs (CB-HSPC) were subsequently purified using EasySep Human Cord Blood CD34 Positive Selection kit II, according to manufacturer's instructions ([…] Technologies). Briefly, a pre-enrichment of CD34+ cells was performed were bi-specific antibodies targeting unwanted cells were used during standard Ficoll-Hypaque (GE Healthcare) density-gradient centrifugation. CD34+ cells were subsequently isolated using anti-CD34 immunomagnetic beads (positive selection). CD34^+ CB HSPCs were either freshly used or cryo-preserved until use.

HSPC-pDCs [1] = experiment: TLR7 or TLR9 agonist activation, functional type I IFN (HEK-blue IFN-α/β reporter)
Protocol: Priming of HSPC-pDCs was performed as previously described. Isolated HSPC-pDCs were primed in the same medium as the differentiation was done in (either RPMI 1640, SFEM II or DC medium). […] For HSPC-pDCs differentiated in DC medium, medium was also supplemented with 50 μg/mL ascorbic acid. Cells were primed for three days before being phenotypically or functionally characterized.
To analyze the capacity of HSPC-pDCs to produce type I IFN, 4×10^4 pDCs were seeded out in 96-well plates in the same medium as the differentiation was done in (either RPMI 1640, SFEM II or DC medium). […] Cells were subsequently stimulated with agonists directed against TLR7 (R837, tlrl-imq, InvivoGen) or TLR9 (CpG-A 2216, tlrl-2216-1, InvivoGen) at a final concentration of 2.5 μg/mL. Twenty hours post stimulation supernatants were harvested and cryopreserved at −20° C. until analysis.
To quantify functional type I IFN, the reporter cell line HEK-blue IFN-α/β was utilized, according to the manufacturer's instructions (InvivoGen). […] Activity of SEAP was assessed using QUANTI-Blue (InvivoGen). Color change was measured at an optical density (OD) of 620 nm using the SpectraMax iD3 platereader (Molecular Devices). […]

HSPC-pDCs [2] = experiment: Phenotypic analysis of pDC surface markers by flow cytometry; settings: pDCs isolated from AA-supplemented culture at day 16
Protocol: Flow cytometry was used to immunophenotype pDCs. Briefly, cells were spun down and resuspended in 100 μL PBS. Cells were stained with Ghost Dye Red 780 Viability Dye (13-0865, Tonbo) for 30 min before being washed with FACS buffer (PBS with 2% FCS and 1 mM EDTA). Cells were subsequently resuspended in 50 μL FACS buffer and stained with the following antibodies: FITC anti-human Lineage Cocktail (CD3 (UCHT1), CD14 (HCD14), CD16 (3G8), CD19 (HIB19), CD20 (2H7) and CD56 (HCD56), 348801, BioLegend), APC anti-human CD11c (3.9, 20-0116-T100, TonboBio), PE anti-human CD123 (6H6, 12-1239-42, eBioscience), PE-Cy7 anti-human CD303 (201a, 25-9818-42, eBioscience). Cells were stained for 30 min before being washed three times in FACS buffer. To validate the expression CD34+ on HSPCs, cells were stained with PE-Cy7 anti-human CD34 (581, 343516, BioLegend) for 30 min, washed three times in FACS buffer before being resuspended in FACS buffer. PI was added to the cells as a viability dye in a concentration of 1:100 (13-6990 Tonbo Bioscience). Fluorescence intensities were measured using the Quanteon flow cytometer equipped with 4 lasers (405 nm, 488 nm, 561 nm, and 637 nm) and 29 photomultipliers (PMT) detectors or the NovoCyte flow cytometer with two lasers (488 nm and 561 nm) and 12 PMT detectors (ACEA Biosciences, Inc.). Data analysis was done using FlowJo (Version 10, Tree Star, Ashland, OR, USA). […]

Structure (SMILES): O=C1O[C@H]([C@@H](O)CO)C(O)=C1O [ascorbic acid]
- viability of HSPC-pDCs isolated at day 21 (CD34+ HSPCs; AA addition versus 72.8%±3.2% for DC medium alone): 92.0%
- percentage of HSPC-pDCs of the total population of cells (CD34+ HSPCs; AA supplementation of DC medium): without affecting
- yield of HSPC-pDCs isolated at day 21 (CD34+ HSPCs; DC medium+AA versus 0.5×10^9+0.3×10^9 for DC medium alone): 1.0×10^9 HSPC-pDCs per 0.1×10^6 CD34+ H
- expansion during HSPC-pDC differentiation (CD34+ HSPCs; DC medium+AA versus 13,456 fold (±6,953) for DC medium alone, 1×10^5 HSPCs seeded): 33,554 fold
- viability of expanding HSPCs during culture (CD34+ HSPCs; DC medium+AA vs DC medium alone, in particular Day 12+): significantly improved
- type I IFN response to synthetic TLR7 and TLR9 agonists (HSPC-pDCs [1]; HSPC-pDCs from AA culture, isolated day 16 and 21, in contrast to DC medium alone): robust type I IFN response
- cHSPC-pDC TLR7 and TLR9-mediated type I IFN production (HSPC-pDCs [1]; cHSPC-pDCs from peripheral blood cHSPCs, SFEM II, DC medium or DC medium+AA): required
- surface expression levels of CD303 (HSPC-pDCs [2]): lower expression levels
